In brackets after ≈: the same amount, converted by molar mass. Several values for one entry are separate records, joined by “and”; a condition that tells them apart may be missing. Equal entries are not always repeated.
Key:
[1] = system: Thrips palmi Karny; assay: Indoor toxicity test on Thrips palmi Karny adults, liquid tube drug film method with leaf soaking; assay type: in vivo; conditions: for Death rate: 48 h
Description: Through indoor tests, a liquid tube drug film method improved by a filter paper drug film method was used for evaluating the indoor toxicity effects of three raw drugs on Thrips palmi Karny.
Thrips palmi Karny was raised indoors in the insectary of the Plant Protection Institute of Shandong Academy of Agricultural Sciences.
Culture was performed in an illumination incubator, and raising and observation were performed under the conditions that the temperature was 25.0±2.0° C., the relative humidity was 75±5% and the photoperiod (L/D) was 14 h/10 h.
The insect for tests is an adult of Thrips palmi Karny.
Three test medicaments were prepared into a mother solution with methanol and then diluted with a Tween-80 aqueous solution having a mass concentration of 0.1% in equal proportions, and the concentration was set in equal proportions. • B4 concentration: 0.5, 1, 2, 4, 8, 16 mg/L; • C4 concentration: 25, 12.5, 6.25, 3.125, 1.5625, 0.7813 mg/L; • A4 concentration: 0.1, 0.05, 0.025, 0.0125, 0.00625, 0.003125 mg/L. 3.2.2 Test Repetition
Each processing was repeated 4 times, and 30 insects for tests were used for each repetition.
According to NY/T 1154.8-2007, the liquid tube drug film method improved by the filter paper drug film method was used for processing insects for tests. Medicaments for tests were diluted into 6 concentrations, a 1.5 mL centrifugal tube was filled with each concentration of liquid medicine respectively and allowed to stand for 4 h, then the liquid medicine was poured out, and the centrifugal tube was placed on a test table and air-dried for later use. A fine needle tip was heated with an alcohol lamp, and a small hole with a diameter of about 2-3 mm was formed at the bottom of the air-dried centrifugal tube by heating. One repetition was performed for each tube, and 4 repetitions were performed for each concentration. Leaf soaking: A hole puncher was used for punching fresh cabbage leaves into circular leaves with a diameter of 0.5 cm, and the circular leaves were respectively soaked in each concentration of liquid medicine for 10 s with leaf soaking in clear water as a control. The processed leaves were placed on absorbent paper and air-dried and then clamped with small tweezers into the centrifugal tubes with corresponding liquid medicine concentrations, and one leaf was placed flatly in each tube. Indoor insects for tests: An interface of an insect sucker was sealed with gauze and sleeves an orifice of the processed centrifugal tube, and the hole formed by heating at the bottom of the centrifugal tube was aligned with the insects for tests to enable the insects for tests to be sucked into the centrifugal tube along the airflow. The insects for tests were processed after control, about 30 insects for tests were sucked for each repetition, then a tube cover was covered, and the hole formed by heating was sealed with a sealing film. After related information was marked, the number of live insects and the number of dead insects were recorded 48 h later.
Test results were investigated 48 h after drug post-processing.
The logarithm of the medicament concentration (mg/L) was taken as an independent variable X, the probability value of a corrected death rate was taken as a dependent variable Y, and the LC50 value, LC90 value, 95% confidence limit and R2 of a toxicity regression line were computed by DPS software.

[2] = system: Myzus persicae Sulzer; assay: Indoor toxicity test on Myzus persicae Sulzer wingless aphids, insect soaking and leaf soaking method; assay type: in vivo; conditions: for Death rate: 48 h
Description: The aphid species was Myzus persicae Sulzer, which was a sensitive population raised indoors in the bioassay room of the Plant Protection Institute of Shandong Academy of Agricultural Sciences. The temperature range was 24-26° C., the humidity range was 60%-80%, and the illumination was L:D=16 h:8 h. Aphids used for tests were wingless aphids.
Test medicaments were prepared into a mother solution with methanol and then diluted with a Tween-80 aqueous solution having a mass concentration of 0.1% in equal proportions. According to effective components, the B4 was set to 6 concentration gradients of 0.5 mg/L, 1 mg/L, 2 mg/L, 4 mg/L, 8 mg/L, and 16 mg/L; the C4 was set to 6 concentration gradients of 0.5 mg/L, 1 mg/L, 2 mg/L, 4 mg/L, 8 mg/L, and 16 mg/L; and the A4 was set to 6 concentration gradients of 0.05 mg/L, 0.1 mg/L, 0.2 mg/L, 0.4 mg/L, 0.8 mg/L, and 1.6 mg/L. A methanol aqueous solution having a volume concentration of 4% was taken as a blank control.
Insects for tests were processed according to an insect soaking method (NY/T 1154.6-2006) and a leaf soaking method (NY/T 1154.14-2008). Each medicament for tests was diluted to the set 6 concentrations for later use. Absorbent paper was placed at the bottom of a disposable plastic cup, a layer of filter paper was laid on the absorbent paper, and 2 mL of distilled water was added to keep moisture for later use. Leaves with aphids were cut into small leaves, each leaf has about 20 wingless aphids, and the leaves with aphids were gently soaked in the liquid medicine with tweezers and then taken out after 10 s, and placed on the absorbent paper and air-dried. The air-dried leaves were placed in the prepared plastic cups which were then covered, and one leaf was placed in each plastic cup. One repetition was performed for each plastic cup, and 4 repetitions were performed for each concentration. The plastic cups were placed in an illumination incubator, and the number of live aphids and the number of dead aphids were recorded 48 h later.
DPS software was used for processing, and the median lethal concentration LC50 and 95% confidence limit of 3 test medicaments on aphids at 48 h were determined.
The logarithm of the medicament concentration (mg/L) was taken as an independent variable X, the probability value of a corrected death rate was taken as a dependent variable Y, and the LC50 value, 95% confidence limit and R2 of a toxicity regression line were computed by DPS software.

[3] = Thrips palmi Karny adults, 48 h after administration

CO/N=C/NC(=O)c1ccc(C2=NOC(c3cc(Cl)cc(Cl)c3)(C(F)(F)F)C2)cc1C (stereo not shown) [C4, fluxametamide]
Death rate ([1]; 0.7813 mg/L, Total/Average): 14.47% | Death rate ([1]; 1.5625 mg/L, Total/Average): 25.14% | Death rate ([1]; 3.125 mg/L, Total/Average): 66.15% | Death rate ([1]; 3.125 mg/L, single repetitions 1-4): 70.59% and 63.16% and 70.00% and 60.87% | Death rate ([1]; 6.25 mg/L, Total/Average): 82.01% | Death rate ([1]; 6.25 mg/L, single repetitions 1-4): 85.71% and 88.00% and 75.00% and 79.31% | Death rate ([1]; 12.5 mg/L, Total/Average): 87.89% | Death rate ([1]; 12.5 mg/L, single repetitions 1-4): 88.89% and 85.19% and 87.50% and 90.00% | Death rate ([1]; 25 mg/L, Total/Average): 96.78% | Death rate ([1]; 25 mg/L, single repetitions 1-4): 95.83% and 95.65% and 100.00% | LC50 [1, 3]: 2.69 µg/mL (≈ 5.67 µM) | LC90 [1, 3]: 16.1203 µg/mL (≈ 34 µM) | Death rate ([2]; 0.5 mg/L, Total): 21.47% | Death rate ([2]; 0.5 mg/L, single repetitions 1-4): 25.00% and 25.71% and 16.67% and 18.52% | Death rate ([2]; 1 mg/L, Total): 46.05% | Death rate ([2]; 1 mg/L, single repetitions 1-4): 47.83% and 36.36% and 40.00% and 60.00% | Death rate ([2]; 2 mg/L, Total): 77.48% | Death rate ([2]; 2 mg/L, single repetitions 1-4): 85.71% and 77.78% and 75.00% and 71.43% | Death rate ([2]; 4 mg/L, Total): 85.54% | Death rate ([2]; 4 mg/L, single repetitions 1-4): 89.29% and 88.00% and 87.10% and 77.78% | Death rate ([2]; 8 mg/L, Total): 96.06% | Death rate ([2]; 8 mg/L, single repetitions 1-4): 91.67% and 92.59% and 100.00% | Death rate ([2]; 16 mg/L, Total): 97.20% | Death rate ([2]; 16 mg/L, single repetitions 1-4): 93.33% and 100.00% and 95.45% | LC50 ([2]; Myzus persicae Sulzer wingless aphids, 48 h after administration): 1.1 µg/mL (≈ 2.32 µM)
